For 17 molecules, TGI and GI50 results are on record in PubChem BioAssay (NCI).

Holding throughout (experiment): NCI anticancer screen, dose series, 48 h
The test system of assay [1] is DU-145 prostate.
Assay [2] relates to IGROV1 ovarian.
The subject of assay [3] is K-562 leukemia.
Assay [4] deals with M14 melanoma.
In assay [5] the test system is MCF7 breast.
The test system of assay [6] is OVCAR-4 ovarian.
The test system of assay [7] is PC-3 prostate.
Assay [8] relates to SK-MEL-2 melanoma.
Assay [9] concerns U251 CNS.
Assay [10] has as its system MOLT-4 leukemia.

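Protocol summary: plate cells (96-well), add compound at 5 concentrations, incubate 48 h, interpolate endpoints linearly. Here, GI50 denotes the concentration required for 50% inhibition of growth. Definition used: TGI = concentration required for complete inhibition of growth.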

Consider `O=C1C=C(NCCc2cc(Br)c(O)c(Br)c2)C(=O)c2[nH]cnc21`, for which the TGI in assay [1] is > 100 µM; in assay [2], > 100 µM; in [3] it was > 100 µM; in [4] it was 57.7 µM; in assay [5], 48.9 µM; in [6] it was 94.9 µM. Also, the TGI in [7], in assay [8] and in [9] was > 100 µM each time.
Turning to `COC(=O)C(N)CCCC(N)C(=O)NC(C)C(=O)NC(CCC(=O)NCCCNc1ccc([N+](=O)[O-])c2[nH]c3ccccc3c(=O)c12)C(N)=O` (stereo not drawn), the TGI amounted to 19.1 µM in assay [1]; 22.6 µM in assay [3]; 17.9 µM in assay [4]; 20.2 µM in assay [6]; 19.8 µM in assay [7]; 46.2 µM in assay [8]. Besides, the TGI in [9] was 18.4 µM.
As to `Cc1cnc2[nH]c(-c3cccc(Cl)c3)cc(=O)c2c1`, the TGI in assay [1] was > 57.8 µM; in assay [2] it was > 100 µM; in assay [4], > 100 µM; in [5], > 100 µM; in [6], > 100 µM; in assay [7], > 100 µM. In addition, the TGI in assay [8] came to 97.4 µM; in assay [9], 92.2 µM.
For the molecule `Clc1ccc(-c2nn3c(C45CC6CC(CC(C6)C4)C5)nnc3s2)cc1`, the TGI in assay [1], in [2], in assay [3], in assay [4], in assay [10] and in assay [6] was > 100 µM each time. Besides, the TGI in assay [7], in assay [8] and in assay [9] was > 100 µM throughout.
Regarding `CC(CC(C)(C)[N+](C)(C)C)[N+](C)(C)C` (stereo not drawn), the TGI in [1], in assay [2], in assay [3], in assay [4], in [5] and in [10] was > 100 µM in each case. Moreover, the TGI in [6], in assay [7] and in assay [9] was > 100 µM in each case.
As for `CCCCNCC(O)c1cc(-c2ccc(C(F)(F)F)cc2)nc(-c2ccc(C(F)(F)F)cc2)c1` (stereo not drawn), the GI50 in assay [1] is 2.02 µM; in [5] it was 1.79 µM; in assay [6] it was 2.11 µM; in [7] it was 1.52 µM; in [8] it was 2.46 µM; in assay [9], 1.73 µM. In addition, the TGI in assay [1] amounted to 3.65 µM; in assay [5] it was 3.54 µM; in assay [6] it was 3.93 µM; in assay [7], 3.05 µM; in assay [8], 4.33 µM; in [9], 3.39 µM.
For `C/C(=C/c1c(C)[nH]c(=O)[nH]c1=O)C(=O)O`, the TGI in [2], in assay [3], in [5], in assay [10], in [6] and in assay [8] was > 1380 µM in each case. Also, the TGI in assay [9] was > 1370 µM. For the same molecule, the GI50 in assay [8] was > 1380 µM.
For the molecule `Cc1ccc(C2(c3ccc(C)c(O)c3C)CCN(C)CC2)c(C)c1O`, the TGI in assay [1], in [2], in [3], in assay [4], in assay [10] and in [6] was > 100 µM in each case. Besides, the TGI is > 100 µM in assay [7], 75.9 µM in assay [8] and > 100 µM in assay [9].
`CC(C)(Oc1ccc(C(=O)c2ccc(Cl)cc2)cc1Cl)C(=O)N1CCN(c2ccccc2)CC1`: the TGI in assay [2], in [3], in assay [4], in assay [10], in assay [8] and in [9] was > 100 µM throughout.
On to `S=C1CSc2c(cnc3ccccc23)N1`, for which the TGI in [1], in assay [2], in assay [3], in assay [4], in assay [5] and in [10] was > 100 µM each time. Moreover, the TGI in [6], in assay [7] and in [9] was > 100 µM each time.
For `COc1ccc(N2C(=O)C3c4[nH]c5ccccc5c4C4CCC(C(C)(C)C)CC4C3C2=O)cc1OC` (stereo not drawn), the TGI was > 100 µM in assay [2]; 84.5 µM in [3]; > 100 µM in assay [4]; 43.9 µM in assay [10]; 52.2 µM in [6]; 73 µM in assay [9].
`COc1c(Cl)c(Cl)c(OC)c2c1C(=O)C=CC2=O`: the TGI in assay [2] was 56.9 µM; in assay [3], 64.4 µM; in [4] it was 43.3 µM; in assay [10], 46.7 µM; in assay [6], 28.9 µM; in assay [8] it was 33.9 µM. Moreover, the TGI in assay [9] is 40.4 µM.
In the case of `Oc1ccccc1C=Nc1ccccc1N=Cc1ccccc1O`, the TGI in assay [2], in assay [3], in assay [4], in assay [10] and in [9] was > 100 µM in each case.
As to `CCc1cc2c(oc3c4ccccc4ccc23)c(=O)[nH]1`, the TGI in assay [1], in [2], in assay [3], in [4], in assay [5] and in [10] was > 10 µM throughout. The TGI in [6], in assay [7] and in assay [9] was > 10 µM in each case.
As for `O=c1c(S(=O)(=O)Oc2ccccc2)coc2cc(F)ccc12`, the TGI in [2], in [3], in assay [4], in assay [5], in assay [10] and in [6] was > 100 µM each time. Besides, the TGI in assay [7], in assay [8] and in assay [9] was > 100 µM each time.
With `CCOC(=O)CN(Cc1ccccc1)Cc1c(C(=O)c2ccccc2)c2ccccc2n1C(=O)c1ccccc1`, the TGI in assay [2], in assay [3], in [4], in assay [10], in assay [6] and in assay [8] was > 100 µM throughout. The TGI in assay [9] was > 100 µM.
Regarding `COc1cc(C(CC(OC)OC)=C(C#N)C#N)cc(OC)c1OC`, the TGI is > 100 µM in [2], 33.9 µM in [10], 49.4 µM in assay [8] and 91.4 µM in assay [9].
